Source: ChEMBL document CHEMBL1828497, “Novel indole and azaindole (pyrrolopyridine) cannabinoid (CB) receptor agonists: design, synthesis, structure-activity relationships, physicochemical properties and biological activity” (Eur J Med Chem, 2011)
In brackets after ≈: the same amount, converted by molar mass.

Experiments:
Cannabinoid receptor 1 [1] = target: T1, Cannabinoid receptor 1 (Homo sapiens, UniProt P21554); experiment: Agonist activity at human CB1 receptor expressed in CHO cells assessed as stimulation of [3H]-arachidonic acid release; format: functional, cell-based
physchem [2] = conditions: 0.01 M phosphate buffered saline, pH 7.4
Cannabinoid receptor 2 [3] = target: T2, Cannabinoid receptor 2 (Homo sapiens, UniProt P34972); experiment: Displacement of [3H]-CP55940 from human CB2 receptor expressed in CHO cells by liquid scintillation counting; format: cell-based
Cannabinoid receptor 1 [4] = target: T1, Cannabinoid receptor 1; experiment: Displacement of [3H]-CP55940 from human CB1 receptor expressed in CHO cells by liquid scintillation counting; format: cell-based
[5] = Apparent permeability from apical to basolateral side in human Caco2 cells by LC-MS/MS analysis; conditions: Caco-2
[6] = Dissociation constant, pKa of the compound by fast UV-metric method; format: physicochemical
physchem [7] = conditions: phosphate buffer, pH 7.4
Description: Thermodynamic solubility of the compound in phosphate buffer at pH 7.4 after 24 hrs by HPLC analysis

Homo sapiens = organism: Homo sapiens; experiment: Selectivity ratio of Ki for human CB2 receptor to Ki for human CB1 receptor
physchem [8] = conditions: 0.01 M phosphate buffered saline, pH 7.4; remark: listed apart in the source
[9] = Lipophilicity, log D of the compound at pH 7.4; conditions: buffer
physchem [10] = conditions: phosphate buffer, pH 4
Description: Thermodynamic solubility of the compound in phosphate buffer at pH 4 after 24 hrs by HPLC analysis

Cannabinoid receptor 2 [11] = target: T2, Cannabinoid receptor 2; experiment: Agonist activity at human CB2 receptor expressed in CHO cells assessed as inhibition of forskolin-stimulated cAMP accumulation after 20 mins; format: functional, cell-based
[12] = target: Cannabinoid receptor 1 (Rattus norvegicus) (UniProt P20272); experiment: Activation of CB1 receptor in Wistar rat prelimbic prefrontal cortex assessed as reduction of field excitatory postsynaptic potential amplitude after 20 mins relative to baseline; format: tissue-based
[13] = target: Cannabinoid receptor 1 (Rattus norvegicus) (UniProt P20272); experiment: (§1) Activation of CB1 receptor in Wistar rat prelimbic prefrontal cortex assessed as reduction of field excitatory postsynaptic potential amplitude after 20 mins; format: tissue-based
Cannabinoid receptor 1 [14] = target: Cannabinoid receptor 1 (Rattus norvegicus, UniProt P20272); experiment: as §1; format: tissue-based
Cannabinoid receptor 1 (Rattus norvegicus, UniProt P20272), sequence (P20272 whole entry): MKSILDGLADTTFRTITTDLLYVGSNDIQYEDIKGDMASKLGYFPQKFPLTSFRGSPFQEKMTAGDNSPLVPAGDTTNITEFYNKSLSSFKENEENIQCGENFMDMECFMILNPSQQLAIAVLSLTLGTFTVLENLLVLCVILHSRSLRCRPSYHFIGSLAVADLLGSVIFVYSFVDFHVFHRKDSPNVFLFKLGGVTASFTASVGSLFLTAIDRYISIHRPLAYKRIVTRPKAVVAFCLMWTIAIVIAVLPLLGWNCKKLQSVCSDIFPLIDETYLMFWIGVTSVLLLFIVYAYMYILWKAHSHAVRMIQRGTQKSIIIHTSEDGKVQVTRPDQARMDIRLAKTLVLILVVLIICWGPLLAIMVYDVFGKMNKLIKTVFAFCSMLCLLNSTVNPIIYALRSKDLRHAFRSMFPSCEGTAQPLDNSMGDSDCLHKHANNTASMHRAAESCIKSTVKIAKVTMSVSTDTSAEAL

Cannabinoid receptor 1 (Rattus norvegicus), sequence (P20272 whole entry): as above
T1 sequence (P21554 whole entry): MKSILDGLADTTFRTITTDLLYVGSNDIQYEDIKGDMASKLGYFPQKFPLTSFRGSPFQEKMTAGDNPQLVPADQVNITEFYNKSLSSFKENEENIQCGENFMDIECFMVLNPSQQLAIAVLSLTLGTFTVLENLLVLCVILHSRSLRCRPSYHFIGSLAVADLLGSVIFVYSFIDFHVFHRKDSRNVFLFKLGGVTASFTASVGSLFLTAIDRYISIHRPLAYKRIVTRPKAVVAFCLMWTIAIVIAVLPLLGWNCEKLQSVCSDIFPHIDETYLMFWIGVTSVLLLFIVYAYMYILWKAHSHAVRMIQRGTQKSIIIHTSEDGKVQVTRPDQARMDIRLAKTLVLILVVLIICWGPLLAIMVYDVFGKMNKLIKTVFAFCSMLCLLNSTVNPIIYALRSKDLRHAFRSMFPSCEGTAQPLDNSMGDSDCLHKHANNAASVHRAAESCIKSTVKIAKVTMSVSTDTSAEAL
T2 sequence (P34972 whole entry): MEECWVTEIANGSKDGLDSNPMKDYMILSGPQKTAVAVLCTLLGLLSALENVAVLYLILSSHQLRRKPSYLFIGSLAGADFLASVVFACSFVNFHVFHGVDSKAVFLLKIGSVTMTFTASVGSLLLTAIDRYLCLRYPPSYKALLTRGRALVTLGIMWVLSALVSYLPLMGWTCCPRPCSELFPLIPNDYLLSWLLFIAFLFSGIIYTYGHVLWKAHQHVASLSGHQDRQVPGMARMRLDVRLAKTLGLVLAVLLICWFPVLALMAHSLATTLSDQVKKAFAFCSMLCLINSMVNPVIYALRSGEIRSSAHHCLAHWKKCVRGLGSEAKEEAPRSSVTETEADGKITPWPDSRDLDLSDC

Row | Structure (SMILES) | EC50 (Cannabinoid receptor 1 [1]) [nM] | solubility kinetic (physchem [2]) [µM] | Ki (Cannabinoid receptor 2 [3]) [nM] | Ki (Cannabinoid receptor 1 [4]) [nM] | Papp A→B [5] [×10⁻⁶ cm/s] | pKa [6] | solubility thermodynamic at 24 h (physchem [7]) [µM] | Ratio Ki (Homo sapiens) | solubility kinetic (physchem [8]) [µM] | logD [9] | solubility thermodynamic at 24 h (physchem [10]) [µM] | EC50 (Cannabinoid receptor 2 [11]) [nM] | Emax [12] [%] | inhibition [13] | IC50 (Cannabinoid receptor 1 [14]) [nM]
1 | CCCCCn1cc(C(=O)c2cccc3ccccc23)c2ccncc21 | 100 | 10 (≈ 3.42 µg/mL) | 501 | 158 | 13 | 5.83 | 4 (≈ 1.37 µg/mL) | 3 | 3 (≈ 1.03 µg/mL) | 4.72 | – | – | – | – | –
2 | COCCn1cc(C(=O)c2cccc(-c3ccccc3)c2)c2ccccc21 | – | – | > 1000 | 251 | – | – | < 1 | > 4 | – | 4.4 | < 1 | – | – | – | –
3 | CCCCCCC(C)(C)c1ccc([C@@H]2C[C@H](O)CC[C@H]2CCCO)c(O)c1 [CP-55940] | – | 100 (≈ 37.7 µg/mL) | – | – | 5.7 | 11.2 | 2 (≈ 0.753 µg/mL) | – | 30 (≈ 11.3 µg/mL) | > 5 | 2 (≈ 0.753 µg/mL) | – | – | – | –
4 | COCCn1cc(C(=O)c2ccc(-c3ccccc3)cc2)c2ccccc21 | – | – | > 1000 | > 1000 | – | – | < 1 | – | – | 4.5 | < 1 | – | – | – | –
5 | COCCn1cc(C(=O)c2cccc3ccccc23)c2ccncc21 | > 1000 | – | 25.1 | > 1000 | – | 5.8 | – | < 0.03 | – | 3.13 | – | – | – | – | –
6 | COCCn1cc(C(=O)c2ccccc2-c2ccccc2)c2ccccc21 | – | – | 631 | 251 | – | – | < 1 | 3 | – | 3.31 | < 1 | – | – | – | –
7 | COCCn1cc(C(=O)Nc2cccc3ccccc23)c2ccccc21 | – | 100 (≈ 34.4 µg/mL) | 251 | > 1000 | 27 | – | 3 (≈ 1.03 µg/mL) | < 0.3 | 30 (≈ 10.3 µg/mL) | 2.94 | 3 (≈ 1.03 µg/mL) | 6.31 | – | – | –
8 | COCCn1cc(C(=O)c2cccc3ccccc23)c2cccnc21 | > 1000 | 65 (≈ 21.5 µg/mL) | 200 | 501 | 26 | < 2 | 3 (≈ 0.991 µg/mL) | 0.4 | 10 (≈ 3.3 µg/mL) | 3.57 | 3 (≈ 0.991 µg/mL) | > 1000 | – | – | –
9 | COCCn1cc(C(=O)Nc2ccc3ccccc3c2)c2ccccc21 | – | – | 316 | > 1000 | – | – | < 1 | < 0.3 | – | 3.69 | < 1 | – | – | – | –
10 | CCCCCn1cc(C(=O)c2cccc3ccccc23)c2cccnc21 | 31.6 | – | 50.1 | 12.6 | – | < 2 | 1 (≈ 0.342 µg/mL) | 4 | – | > 5 | 1 (≈ 0.342 µg/mL) | 158 | 67.1 | Dose-dependent effect | 520
11 | CCCCCCC(C)(C)c1cc(O)c2c(c1)OC(C)(C)C1CCC(=O)CC21 (stereo not given) [NABILONE] | – | – | 6.31 | 3.98 | – | 10.6 | < 1 | 1.7 | – | > 5 | < 1 | 15.8 | – | – | –
12 | CCCCCn1cc(C(=O)c2cccc3ccccc23)c2ccccc21 | 5.01 | – | 6.31 | 2 | – | – | < 1 | 3 | – | > 5 | < 1 | 5.01 | 73.5 | Dose-dependent effect | 280
13 | CCCCCn1cc(C(=O)c2ccccc2-c2ccccc2)c2ccccc21 | – | – | 7.94 | 6.31 | – | – | < 1 | 1 | – | > 5 | – | – | – | – | –
14 | CCCCCn1cc(C(=O)Nc2cccc3ccccc23)c2ccccc21 | 10 | – | 100 | 1.26 | – | – | < 1 | 79 | – | > 5 | < 1 | 7.94 | 78.1 | Dose-dependent effect | 450
15 | CCCCCn1cc(C(=O)c2cccc(-c3ccccc3)c2)c2ccccc21 | – | – | 63.1 | 7.94 | – | – | < 1 | 9 | – | > 5 | – | – | – | – | –
16 | CCCCCn1cc(C(=O)Nc2ccc3ccccc3c2)c2ccccc21 | > 1000 | – | 631 | 63.1 | – | – | < 1 | 10 | – | > 5 | < 1 | 5010 | – | – | –
17 | Cc1c(C(=O)c2cccc3ccccc23)c2cccc3c2n1[C@H](CN1CCOCC1)CO3 [WIN-552122] | – | 20 (≈ 8.53 µg/mL) | – | – | 12.1 | 4.14 | 5 (≈ 2.13 µg/mL) | – | 3 (≈ 1.28 µg/mL) | 4.08 | 8 (≈ 3.41 µg/mL) | – | – | – | –
18 | CCCCCn1cc(C(=O)c2cccc3ccccc23)c2cnccc21 | 50.1 | – | 50.1 | 316 | – | 6.49 | – | – | – | – | – | – | – | – | –
19 | CCCCCn1cc(C(=O)c2ccc(-c3ccccc3)cc2)c2ccccc21 | – | – | 39.8 | 31.6 | – | – | < 1 | 1 | – | > 5 | < 1 | – | – | – | –
